Experimental data taken from ChEMBL document CHEMBL5150000, “Insights on Dengue and Zika NS5 RNA-dependent RNA polymerase (RdRp) inhibitors” (Eur J Med Chem, 2021).
pEC50, pIC50, pKd: −log10 of the molar value.

What was measured:
[1] = system: dengue virus type 2; test: Antiviral activity against DENV-2 RNA-dependent RNA polymerase infected in human Huh-7 cells assessed as reduction in viral replication by RT-PCR analysis; assay type: functional, organism-based
[2] = system: Zika virus; test: Antiviral activity against Zika virus infected in African green monkey Vero cells assessed as reduction in viral replication incubated for 24 hrs; assay type: functional, organism-based
[3] = Inhibition od DENV-2 RNA-dependent RNA polymerase; set-up: species or system dengue virus type 2
[4] = target: T1, DNA polymerase alpha catalytic subunit (Homo sapiens) (UniProt P09884); test: Inhibition of human DNA polymerase alpha at 100 uM incubated for 60 mins by Microbeta counter analysis
T1 sequence (whole entry): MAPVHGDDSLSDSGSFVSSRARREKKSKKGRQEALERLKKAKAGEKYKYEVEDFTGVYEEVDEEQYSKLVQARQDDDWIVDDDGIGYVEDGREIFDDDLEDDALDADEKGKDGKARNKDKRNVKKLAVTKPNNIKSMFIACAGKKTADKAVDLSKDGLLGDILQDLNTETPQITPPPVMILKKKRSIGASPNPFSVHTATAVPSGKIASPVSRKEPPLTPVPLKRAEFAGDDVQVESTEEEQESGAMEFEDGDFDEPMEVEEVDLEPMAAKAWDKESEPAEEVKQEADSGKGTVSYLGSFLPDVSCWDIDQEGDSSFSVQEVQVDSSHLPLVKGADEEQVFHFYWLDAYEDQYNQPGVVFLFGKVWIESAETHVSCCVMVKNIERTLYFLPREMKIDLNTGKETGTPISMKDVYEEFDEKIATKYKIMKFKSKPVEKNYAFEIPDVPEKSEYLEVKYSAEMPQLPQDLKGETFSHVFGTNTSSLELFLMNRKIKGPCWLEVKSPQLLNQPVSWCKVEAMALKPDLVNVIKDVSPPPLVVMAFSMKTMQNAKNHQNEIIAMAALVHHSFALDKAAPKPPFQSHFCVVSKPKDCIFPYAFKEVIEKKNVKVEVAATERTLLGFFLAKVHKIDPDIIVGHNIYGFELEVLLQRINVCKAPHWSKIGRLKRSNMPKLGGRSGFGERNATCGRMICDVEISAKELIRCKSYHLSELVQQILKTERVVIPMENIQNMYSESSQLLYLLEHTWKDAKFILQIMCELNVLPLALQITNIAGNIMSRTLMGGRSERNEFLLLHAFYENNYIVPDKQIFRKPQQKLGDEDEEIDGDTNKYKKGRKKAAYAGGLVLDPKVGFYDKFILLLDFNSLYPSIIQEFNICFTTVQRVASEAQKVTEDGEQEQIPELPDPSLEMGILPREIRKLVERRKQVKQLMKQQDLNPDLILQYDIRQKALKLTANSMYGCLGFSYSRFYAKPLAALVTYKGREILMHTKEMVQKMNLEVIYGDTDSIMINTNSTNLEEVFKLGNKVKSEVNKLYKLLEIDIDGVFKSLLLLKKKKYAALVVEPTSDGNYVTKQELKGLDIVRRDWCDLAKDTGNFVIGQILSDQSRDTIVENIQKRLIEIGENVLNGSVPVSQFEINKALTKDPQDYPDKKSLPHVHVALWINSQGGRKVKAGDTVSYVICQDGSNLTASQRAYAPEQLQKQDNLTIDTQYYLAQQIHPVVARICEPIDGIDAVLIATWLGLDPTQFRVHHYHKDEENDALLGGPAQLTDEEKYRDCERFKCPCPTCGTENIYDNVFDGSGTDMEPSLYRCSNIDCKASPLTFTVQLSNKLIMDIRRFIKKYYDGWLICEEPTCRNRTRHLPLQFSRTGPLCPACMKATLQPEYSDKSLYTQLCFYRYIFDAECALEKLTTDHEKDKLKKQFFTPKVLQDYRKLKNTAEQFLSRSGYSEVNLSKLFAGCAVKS

[5] = system: Hepacivirus hominis; test: Inhibition of C-terminal his6-tagged HCV NS5/RNA-dependent RNA polymerase expressed in Escherichia coli at 100 uM incubated for 2 hrs by Microbeta counter analysis
[6] = target: T2, Nonstructural protein 5 (Dengue virus, UniProt V5TFZ2); test: Inhibition of DENV-4 NS5; set-up: species or system dengue virus type 4
[7] = target: T2, Nonstructural protein 5; test: Inhibition of DENV-2 NS5; set-up: species or system dengue virus type 2
[8] = target: T2, Nonstructural protein 5; test: Inhibition of full length His-tagged DENV-2 NS5 incubated for 1 hr; set-up: species or system dengue virus type 2
[9] = target: T2, Nonstructural protein 5; test: Binding affinity to full length His-tagged DENV-2 NS5 assessed as dissociation constant; set-up: species or system dengue virus type 2
[10] = Cytotoxicity against hamster BHK-21 cells; assay type: toxicity, cell-based, Mesocricetus auratus
[11] = Inhibition of DENV RNA-dependent RNA polymerase in hamster BHK-21 cells; assay type: cell-based, Dengue virus
[12] = target: Nonstructural protein 5 (Dengue virus) (UniProt V5TFZ2); test: Binding affinity to DENV-3 NS5 assessed as gibbs free energy change; conditions: dengue virus type 3
[13] = Cytotoxicity against African green monkey Vero cells incubated for 4 hrs by Cell-titer glo assay; assay type: toxicity, cell-based; conditions: chlorocebus sabaeus
[14] = system: Zika virus; test: Antiviral activity against Zika virus RNA-dependent RNA polymerase infected in African green monkey Vero cells; assay type: functional, organism-based
[15] = Selectivity index, ratio of CC50 for cytotoxicity against African green monkey Vero cells to EC50 for antiviral activity against Zika virus RNA-dependent RNA polymerase infected in African green monkey Vero cells; assay type: toxicity, cell-based; conditions: read-out: Ratio CC50/EC50
[16] = target: NS5 (Zika virus, UniProt A0A143MHK7); test: Inhibition of Zika virus RNA-dependent RNA polymerase activity
[17] = Inhibition of DENV RNA-dependent RNA polymerase activity; set-up: species or system Dengue virus
[18] = Cytotoxicity against African green monkey Vero cells; assay type: toxicity, cell-based; conditions: chlorocebus sabaeus
[19] = system: Zika virus; test: Antiviral activity against Zika virus NS5/RNA-dependent RNA polymerase; assay type: functional, organism-based
[20] = system: Dengue virus; test: Antiviral activity against DENV NS5/RNA-dependent RNA polymerase; assay type: functional, organism-based
[21] = Binding affinity to DENV RNA-dependent RNA polymerase assessed as dissociation constant; set-up: species or system Dengue virus
[22] = system: Dengue virus; test: Antiviral activity against DENV RNA-dependent RNA polymerase infected in human PBMC; assay type: functional, organism-based

Chain of NS5 (A0A143MHK7 whole entry): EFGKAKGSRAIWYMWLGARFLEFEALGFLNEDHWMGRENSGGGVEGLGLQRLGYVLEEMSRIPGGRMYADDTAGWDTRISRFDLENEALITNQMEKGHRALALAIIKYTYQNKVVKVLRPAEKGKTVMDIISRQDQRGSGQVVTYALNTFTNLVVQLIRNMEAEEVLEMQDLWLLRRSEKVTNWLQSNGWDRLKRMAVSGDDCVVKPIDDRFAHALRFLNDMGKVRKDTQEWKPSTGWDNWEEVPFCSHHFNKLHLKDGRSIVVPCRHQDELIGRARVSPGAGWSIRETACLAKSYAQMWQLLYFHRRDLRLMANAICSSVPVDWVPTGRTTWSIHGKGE

O=C(N[C@@H](Cc1ccc(O)cc1)C(=O)O)c1cc(-c2ccccc2)c(=O)n2c1sc1ccc(C3CCCCCC3)cc12
pEC50 [1]: 5.43
pEC50 [2]: 5.80

O=C(O)c1ccccc1NS(=O)(=O)c1cccc(-c2cnn(Cc3ccccc3)c2)c1
pIC50 [3]: 6.15
inhibition [4]: 32%
inhibition [5]: 23%
pIC50 [6]: 5.28
pIC50 [7]: 5.34

O=C1N/C(=N\c2nnc(-c3ccccc3Cl)s2)S/C1=C\c1cccc(F)c1
pIC50 [8]: 5.68
pKd [9]: 5.04

C#Cc1c(C#N)ncn1[C@@H]1S[C@H](CO)[C@@H](O)[C@H]1O
CC50 [10]: > 50 µM
pIC50 [11]: 5.18

O=C(Nc1nc(-c2cccc3ccccc23)n[nH]1)C1=CNc2ccccc2N1
deltaG [12]: -4.89 kcal/mol

O=C(NC(=S)Nc1ccc(N2CCN(C(=O)c3cccs3)CC2)cc1)c1sc2ccccc2c1Cl
CC50 at 4 h [13]: 19.4 µM
pEC50 [14]: 7.03
selectivity ratio [15]: 206

CCC(CC)COC(=O)[C@H](C)N[P@](=O)(OC[C@H]1O[C@@](C#N)(c2ccc3c(N)ncnn23)[C@H](O)[C@@H]1O)Oc1ccccc1
pIC50 [16]: 5.87
pIC50 [17]: 5.85

O[C@H]1[C@H]2c3cc4c(cc3CN3CCC(=C[C@@H]1O)[C@H]23)OCO4 [LYCORINE]
CC50 [18]: 21 µM
pEC50 [19]: 6.41

CCCCC#CC#CC#CCCCCCCCC(=O)O
pIC50 [20]: 5.57
CC50 [18]: 30 µM

C#Cc1c(C#N)ncn1[C@@H]1O[C@H](CO)[C@@H](O)[C@H]1O
CC50 [10]: 3.99 µM
pIC50 [11]: 6.26

O=C(NCCO)c1cc(-c2ccccc2)c(=O)n2c1sc1ccc(C3CCCCC3)cc12
pEC50 [1]: 5.72
pEC50 [2]: 5.74

CCCC/C=C/C#CCCCCCCCC(=O)O
pIC50 [20]: 5.57
CC50 [18]: 30 µM

O=C(N[C@@H](Cc1cccc(O)c1)C(=O)O)c1cc(-c2ccccc2)c(=O)n2c1sc1ccc(C3CCCCC3)cc12
pEC50 [1]: 5.54
pEC50 [2]: 6.10

O=C1N=C(SCC(=O)N2CCN(c3ccc(F)cc3)CC2)N=C2CCN(Cc3ccccc3)C[C@H]12
deltaG [12]: -6.43 kcal/mol

Cc1ccc(C2N(c3ccccc3)CC3=C(CC(C)(C)CC3=O)N2c2ccccc2)cc1 (stereo unspecified)
pKd [21]: 6.05

C#C[C@]1(O)[C@H](n2ccc(=O)[nH]c2=O)O[C@](F)(CO[P@](=O)(N[C@@H](C)C(=O)OC(C)C)Oc2ccccc2)[C@H]1O
pEC50 [22]: 6.43

C#Cc1c(C(N)=O)ncn1[C@@H]1O[C@H](CO)[C@@H](O)[C@H]1O
CC50 [10]: 1.24 µM
pIC50 [11]: 6.57

O=C(NCc1ccc(O)cc1)c1cc(-c2ccccc2)c(=O)n2c1sc1ccc(C3CCCCC3)cc12
pEC50 [1]: 5.74
pEC50 [2]: 6.00
